In US9783536B2, “Nitrogen-containing heterocyclic compound or salt thereof” (FUJIFILM Corporation, priority 2013, dated 2017) one finds IC50 data, which are given here for 29 molecules.

Holding throughout (type): biochemical
Experiment [1] deals with T1, GST fusion human ERK2 protein (Homo sapiens, UniProt P28482).
T1 construct: purchased Carna Biosciences, Inc; host or cells: E. coli expression system
As to the kind of experiment: ERK2 enzyme assay (2). Particulars: ERK2 enzyme assay (2); read-out: ERK2 enzyme inhibitory activity (2). The gist of the method:
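IC50 values come from mobility-shift measurement of phosphorylated versus unphosphorylated 5-FAM peptide substrate after EDTA quench. Beforehand, compound and 1.25 nmol/L E. coli-expressed GST–human ERK2 stood 15 min at room temperature (pH 7.5), then 1 mmol/L ATP and 4.25 μmol/L substrate (final) were added for 120 min at 25 °C.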

Experiment [2] deals with T1, GST fusion human ERK2 protein. In words: ERK2 enzyme assay (1). Particulars: ERK2 enzyme assay (1); read-out: ERK2 enzyme inhibitory activity (1). The gist of the method: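 IC50 derived from the proportion of phosphorylated 5-FAM peptide, separated from unphosphorylated peptide by microfluidic mobility shift. Compound was first preincubated 15 min at room temperature with 2.5 nmol/L kinase at pH 7.5, then 43.1 μmol/L ATP plus 4.25 μmol/L substrate reacted 120 min at 25 °C.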

The next experiment deals with T2, human PI3Kα protein (Homo sapiens, UniProt P42336).
T2 construct: purchased Carna Biosciences, Inc; host or cells: baculovirus expression system
As to the kind of experiment: PI3Kα enzyme assay (ADP-Glo). As to conditions: read-out: PI3Kα enzyme inhibitory activity. The gist of the method: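 Biotinylated human PI3Kα (baculovirus-expressed, 4.5 nmol/L) pre-incubated 15 min with compound in Tris-HCl pH 7.5, MgCl2, BSA; reaction 60 min at 25° C with 50 μmol/L PIP2 and 100 μmol/L ATP final. ADP quantified by ADP-Glo luminescence; IC50 calculated.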

T2 sequence (P42336 whole entry): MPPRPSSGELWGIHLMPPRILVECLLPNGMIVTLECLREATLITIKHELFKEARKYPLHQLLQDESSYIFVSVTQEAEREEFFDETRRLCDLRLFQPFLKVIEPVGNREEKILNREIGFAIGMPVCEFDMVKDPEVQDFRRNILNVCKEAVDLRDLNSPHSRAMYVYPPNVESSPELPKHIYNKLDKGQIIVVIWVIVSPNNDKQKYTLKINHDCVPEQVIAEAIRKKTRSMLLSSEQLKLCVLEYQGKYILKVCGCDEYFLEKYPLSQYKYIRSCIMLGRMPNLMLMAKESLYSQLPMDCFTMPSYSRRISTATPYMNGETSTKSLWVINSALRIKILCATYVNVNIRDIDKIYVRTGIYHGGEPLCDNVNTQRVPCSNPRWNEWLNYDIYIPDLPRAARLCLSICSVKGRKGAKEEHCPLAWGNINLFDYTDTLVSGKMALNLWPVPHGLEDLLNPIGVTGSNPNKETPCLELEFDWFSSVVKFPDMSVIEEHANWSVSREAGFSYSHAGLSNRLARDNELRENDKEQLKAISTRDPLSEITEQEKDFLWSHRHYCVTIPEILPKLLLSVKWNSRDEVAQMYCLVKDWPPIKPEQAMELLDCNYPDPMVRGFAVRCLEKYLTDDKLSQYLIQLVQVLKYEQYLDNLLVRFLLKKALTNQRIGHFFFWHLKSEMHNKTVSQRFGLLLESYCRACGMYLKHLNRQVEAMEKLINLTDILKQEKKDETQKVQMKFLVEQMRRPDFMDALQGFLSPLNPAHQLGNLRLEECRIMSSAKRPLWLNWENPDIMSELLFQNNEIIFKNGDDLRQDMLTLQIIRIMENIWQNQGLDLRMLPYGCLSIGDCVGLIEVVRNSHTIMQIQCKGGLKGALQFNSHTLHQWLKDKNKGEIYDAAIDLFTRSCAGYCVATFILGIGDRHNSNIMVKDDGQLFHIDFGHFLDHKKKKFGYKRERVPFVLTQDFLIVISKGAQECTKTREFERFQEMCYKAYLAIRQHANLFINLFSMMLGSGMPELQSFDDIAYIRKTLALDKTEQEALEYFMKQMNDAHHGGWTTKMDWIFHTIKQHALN
T2 sequence (P27986 whole entry partner): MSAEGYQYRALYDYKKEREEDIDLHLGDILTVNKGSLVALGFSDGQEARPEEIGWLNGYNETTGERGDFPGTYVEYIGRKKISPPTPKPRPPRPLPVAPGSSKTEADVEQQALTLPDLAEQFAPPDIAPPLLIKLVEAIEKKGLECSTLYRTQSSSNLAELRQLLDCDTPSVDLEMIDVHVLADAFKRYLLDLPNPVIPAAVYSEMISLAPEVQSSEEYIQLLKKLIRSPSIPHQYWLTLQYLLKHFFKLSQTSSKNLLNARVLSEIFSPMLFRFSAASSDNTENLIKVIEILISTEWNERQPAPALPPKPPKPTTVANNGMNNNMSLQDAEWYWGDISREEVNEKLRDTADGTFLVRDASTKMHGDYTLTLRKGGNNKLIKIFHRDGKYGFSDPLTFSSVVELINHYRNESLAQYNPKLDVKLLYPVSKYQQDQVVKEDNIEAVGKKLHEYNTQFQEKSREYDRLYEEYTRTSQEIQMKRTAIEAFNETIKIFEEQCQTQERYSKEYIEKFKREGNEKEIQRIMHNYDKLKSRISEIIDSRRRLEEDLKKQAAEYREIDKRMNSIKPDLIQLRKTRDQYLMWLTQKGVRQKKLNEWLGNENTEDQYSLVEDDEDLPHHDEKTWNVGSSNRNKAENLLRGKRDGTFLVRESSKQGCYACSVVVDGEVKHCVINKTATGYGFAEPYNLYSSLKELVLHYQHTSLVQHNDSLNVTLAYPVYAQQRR
T1 sequence (P28482 whole entry, the tested form may be a part): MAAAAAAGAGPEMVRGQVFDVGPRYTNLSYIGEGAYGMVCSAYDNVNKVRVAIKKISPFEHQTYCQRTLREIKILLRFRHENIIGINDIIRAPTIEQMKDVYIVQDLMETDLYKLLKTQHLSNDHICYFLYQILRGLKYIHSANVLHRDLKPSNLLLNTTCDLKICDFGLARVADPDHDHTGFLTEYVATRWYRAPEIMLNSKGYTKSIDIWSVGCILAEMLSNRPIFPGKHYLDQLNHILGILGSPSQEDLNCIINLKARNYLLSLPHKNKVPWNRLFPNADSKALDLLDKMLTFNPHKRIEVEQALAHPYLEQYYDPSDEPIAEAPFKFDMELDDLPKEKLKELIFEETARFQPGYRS

For the molecule `c1cc(-c2ccnc3ccc(Nc4nnc(CC5CCCO5)s4)nc23)ccn1` (stereo not drawn) [Example 0276], the IC50 in experiment [1] is 1000 to 10000 nM; in experiment [2], less than 1000 nM; at human PI3Kα protein, less than 1000 nM.

`CC(C)(C)c1cnnc(Nc2ccc3ncc(-c4cnn(CCCN5CCCC5)c4)cc3n2)c1` [Example 0290]: the IC50 (in experiment [1]; in experiment [2]; at human PI3Kα protein) was less than 1000 nM throughout.

With `CC(C)Cc1cnnc(Nc2ccc3ncc(-c4cnn(CCCN5CCCC5)c4)cc3n2)c1` [Example 0292], the IC50 (in experiment [1]; in experiment [2]; at human PI3Kα protein) was less than 1000 nM each time.

With `CCC(C)c1cnnc(Nc2ccc3ncc(-c4cnn(CCCN5CCCC5)c4)cc3n2)c1` (stereo not drawn) [Example 0294], the IC50 (in experiment [1]; in experiment [2]; on human PI3Kα protein) was less than 1000 nM in each case.

For the molecule `c1nc2ccc(Nc3cc(C4CC4)cnn3)nc2cc1-c1cnn(CCCN2CCCC2)c1` [Example 0295, N-(5-cyclopropylpyridazin-3-yl)-7-(1-(3-(pyrrolidin-1-yl)propyl)-1H-pyrazol-4-yl)-1,5-naphthyridine-2-amine], the IC50 (in experiment [1]; in experiment [2]; on human PI3Kα protein) was less than 1000 nM throughout.

Regarding `c1nc2ccc(Nc3nnc(C4CCCC4)s3)nc2cc1-c1cnn(CCCN2CCNCC2)c1` [Example 0303, 5-cyclopentyl-N-(7-(1-(3-(piperazin-1-yl)propyl)-1H-pyrazol-4-yl)-1,5-naphthyridin-2-yl)-1,3,4-thiadiazole-2-amine], the IC50 (in experiment [1]; in experiment [2]; on human PI3Kα protein) was less than 1000 nM in each case.

For `c1nc2ccc(Nc3nnc(C4CCCC4)s3)nc2cc1N1CCOCC1` [Example 0311, 5-cyclopentyl-N-(7-morpholino-1,5-naphthyridin-2-yl)-1,3,4-thiadiazole-2-amine], the IC50 in experiment [1] is less than 1000 nM; in experiment [2], less than 1000 nM; at human PI3Kα protein, 1000 to 10000 nM.

`CN1CCC(n2cc(-c3cnc4ccc(Nc5nnc(C6CCCC6)s5)nc4c3)cn2)CC1` [Example 0318, 5-cyclopentyl-N-(7-(1-(1-methylpiperidin-4-yl)-1H-pyrazol-4-yl)-1,5-naphthyridin-2-yl)-1,3,4-thiadiazole-2-amine]: the IC50 (in experiment [1]; in experiment [2]; on human PI3Kα protein) was less than 1000 nM throughout.

As to `c1nc2ccc(Nc3nnc(C4CCCC4)s3)nc2cc1-c1cnn(CCCN2CCCC2)c1` [Example 0320], the IC50 (in experiment [1]; in experiment [2]; at human PI3Kα protein) was less than 1000 nM each time.

With `C1=C(c2cnc3ccc(Nc4nnc(C5CCCC5)s4)nc3c2)CCOC1` [Example 0327], the IC50 in experiment [1] is less than 1000 nM; in experiment [2], less than 1000 nM; at human PI3Kα protein, 1000 to 10000 nM.

In the case of `OCCN1CCC(n2cc(-c3cnc4ccc(Nc5nnc(C6CCCC6)s5)nc4c3)cn2)CC1` [Example 0336, 2-(4-(4-(6-((5-cyclopentyl-1,3,4-thiadiazol-2-yl)amino)-1,5-naphthyridin-3-yl)-1H-pyrazol-1-yl)piperidin-1-yl)ethanol], the IC50 (in experiment [1]; in experiment [2]; at human PI3Kα protein) was less than 1000 nM each time.

For the molecule `OCCCN1CCC(n2cc(-c3cnc4ccc(Nc5nnc(C6CCCC6)s5)nc4c3)cn2)CC1` [Example 0337, 3-(4-(4-(6-((5-Cyclopentyl-1,3,4-thiadiazol-2-yl)amino)-1,5-naphthyridin-3-yl)-1H-pyrazol-1-yl)piperidin-1-yl)propan-1-ol], the IC50 (in experiment [1]; in experiment [2]; at human PI3Kα protein) was less than 1000 nM each time.

For `COCCCn1cc(-c2cnc3ccc(Nc4nnc(C5CCCC5)s4)nc3c2)cn1` [Example 0339, 5-cyclopentyl-N-(7-(1-(3-methoxypropyl)-1H-pyrazol-4-yl)-1,5-naphthyridin-2-yl)-1,3,4-thiadiazole-2-amine], the IC50 (in experiment [1]; in experiment [2]; on human PI3Kα protein) was less than 1000 nM in each case.

As to `CNC(=O)CCn1cc(-c2cnc3ccc(Nc4nnc(C5CCCC5)s4)nc3c2)cn1` [Example 0342], the IC50 (in experiment [1]; in experiment [2]; at human PI3Kα protein) was less than 1000 nM each time.

Turning to `NC(=O)CCn1cc(-c2cnc3ccc(Nc4nnc(C5CCCC5)s4)nc3c2)cn1` [Example 0343], the IC50 (in experiment [1]; in experiment [2]; on human PI3Kα protein) was less than 1000 nM throughout.

As to `c1nc2ccc(Nc3nnc(C4CCCC4)s3)nc2cc1-c1cnn(CCCN2CCCCC2)c1` [Example 0344, 5-cyclopentyl-N-(7-(1-(3-(piperidin-1-yl)propyl)-1H-pyrazol-4-yl)-1,5-naphthyridin-2-yl)-1,3,4-thiadiazole-2-amine], the IC50 (in experiment [1]; in experiment [2]; at human PI3Kα protein) was less than 1000 nM each time.

Take `c1nc2ccc(Nc3nnc(C4CCCC4)s3)nc2cc1-c1cnn(CCCN2CCC2)c1` [Example 0345]: the IC50 (in experiment [1]; in experiment [2]; at human PI3Kα protein) was less than 1000 nM throughout.

On to `F[C@H]1CCN(CCCn2cc(-c3cnc4ccc(Nc5nnc(C6CCCC6)s5)nc4c3)cn2)C1` [Example 0346], for which the IC50 (in experiment [1]; in experiment [2]; on human PI3Kα protein) was less than 1000 nM in each case.

`Cn1cc(-c2cnc3ccc(Nc4nnc(C5CCCC5)s4)nc3c2Cl)cn1` [Example 0350, N-(8-chloro-7-(1-methyl-1H-pyrazol-4-yl)-1,5-naphthyridin-2-yl)-5-cyclopentyl-1,3,4-thiadiazole-2-amine]: the values for the IC50 (in experiment [1]; in experiment [2]; on human PI3Kα protein) were less than 1000 nM, less than 1000 nM and 1000 to 10000 nM, respectively.

For `F[C@@H]1CCN(CCCn2cc(-c3cnc4ccc(Nc5nnc(C6CCCC6)s5)nc4c3)cn2)C1` [Example 0351, (R)-5-cyclopentyl-N-(7-(1-(3-(3-fluoropyrrolidin-1-yl)propyl)-1H-pyrazol-4-yl)-1,5-naphthyridin-2-yl)-1,3,4-thiadiazole-2-amine], the IC50 (in experiment [1]; in experiment [2]; on human PI3Kα protein) was less than 1000 nM each time.

Regarding `FC1(F)CCN(CCCn2cc(-c3cnc4ccc(Nc5nnc(C6CCCC6)s5)nc4c3)cn2)CC1` [Example 0353], the IC50 (in experiment [1]; in experiment [2]; on human PI3Kα protein) was less than 1000 nM in each case.

Consider `FC1(F)CN(CCCn2cc(-c3cnc4ccc(Nc5nnc(C6CCCC6)s5)nc4c3)cn2)C1` [Example 0354], for which the IC50 (in experiment [1]; in experiment [2]; on human PI3Kα protein) was less than 1000 nM each time.

As to `OC(CN1CCCC1)Cn1cc(-c2cnc3ccc(Nc4nnc(C5CCCC5)s4)nc3c2)cn1` (stereo not drawn) [Example 0356, 1-(4-(6-((5-Cyclopentyl-1,3,4-thiadiazol-2-yl)amino)-1,5-naphthyridin-3-yl)-1H-pyrazol-1-yl)-3-(pyrrolidin-1-yl)propan-2-ol], the IC50 (in experiment [1]; in experiment [2]; on human PI3Kα protein) was less than 1000 nM throughout.

Take `CCOc1c(-c2cnn(C)c2)cnc2ccc(Nc3nnc(C4CCCC4)s3)nc12` [Example 0358, 5-Cyclopentyl-N-(8-ethoxy-7-(1-methyl-1H-pyrazol-4-yl)-1,5-naphthyridin-2-yl)-1,3,4-thiadiazole-2-amine]: the IC50 (in experiment [1]; in experiment [2]; at human PI3Kα protein) was less than 1000 nM each time.

For the molecule `CC(C)Oc1c(-c2cnn(C)c2)cnc2ccc(Nc3nnc(C4CCCC4)s3)nc12` [Example 0359, 5-cyclopentyl-N-(8-isopropyloxy-7-(1-methyl-1H-pyrazol-4-yl)-1,5-naphthyridin-2-yl)-1,3,4-thiadiazole-2-amine], the IC50 in experiment [1] was 1000 to 10000 nM; in experiment [2] it was less than 1000 nM; at human PI3Kα protein, less than 1000 nM.

For the molecule `Cc1c(-c2cnc3ccc(Nc4nnc(C(C)C)s4)nc3c2)cnn1CCCN1CCCC1` [Example 0360, 5-Isopropyl-N-(7-(5-methyl-1-(3-(pyrrolidin-1-yl)propyl)-1H-pyrazol-4-yl)-1,5-naphthyridin-2-yl)-1,3,4-thiadiazole-2-amine], the IC50 (in experiment [1]; in experiment [2]; on human PI3Kα protein) was less than 1000 nM each time.

For the molecule `CCCc1nnc(Nc2ccc3ncc(-c4cnn(CCCN5CCCC5)c4)cc3n2)s1` [Example 0364], the IC50 (in experiment [1]; in experiment [2]; at human PI3Kα protein) was less than 1000 nM in each case.

`CC(C)c1cnnc(Nc2ccc3ncc(-c4cnn(C5CCN(C)CC5)c4)cc3n2)c1` [Example 0370, N-(5-isopropylpyridazin-3-yl)-7-(1-(1-methylpiperidin-4-yl)-1H-pyrazol-4-yl)-1,5-naphthyridine-2-amine]: the IC50 (in experiment [1]; in experiment [2]; on human PI3Kα protein) was less than 1000 nM in each case.

For `CC(C)c1cnnc(Nc2ccc3ncc(-c4cnn(CCCc5ccccc5)c4)cc3n2)c1` [Example 0372], the IC50 was less than 1000 nM in experiment [1], less than 1000 nM in experiment [2] and 1000 to 10000 nM on human PI3Kα protein.
